One data set has as its target T1, human CRF2α receptor (Homo sapiens, UniProt Q13324).
T1 construct: expressed in transfected cells; host or cells: TeloHEAC
T1 sequence (Q13324 1-411): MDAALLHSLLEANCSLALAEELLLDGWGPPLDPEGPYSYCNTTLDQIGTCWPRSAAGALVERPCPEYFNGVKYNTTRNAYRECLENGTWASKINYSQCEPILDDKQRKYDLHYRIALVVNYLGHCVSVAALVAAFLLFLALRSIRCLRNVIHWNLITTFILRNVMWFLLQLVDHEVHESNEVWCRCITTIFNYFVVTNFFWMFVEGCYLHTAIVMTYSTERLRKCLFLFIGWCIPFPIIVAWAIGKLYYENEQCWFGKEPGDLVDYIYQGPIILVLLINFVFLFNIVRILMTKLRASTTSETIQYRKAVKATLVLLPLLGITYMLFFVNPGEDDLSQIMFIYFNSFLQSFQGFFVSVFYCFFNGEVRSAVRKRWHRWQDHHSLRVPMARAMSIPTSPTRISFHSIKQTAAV
Kind of data set: cAMP agonism at human CRF2 α receptor in TeloHEAC cells (Example 7). Type of data set: cell-based. The note with it: cAMP HTRF, TeloHEAC cells stably expressing human CRF2 α. The method in brief: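 Cryopreserved cells are thawed, washed and resuspended in IBMX-containing (2 mM) HEPES-buffered HBSS with or without 0.1% HSA. Compound incubation runs 30 min at room temperature with 2000 cells per well, then cAMP is measured by time-resolved FRET. Potency is expressed as EC50, efficacy relative to urocortin 2 at 1000 nM.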
For orientation: In TR-FRET formats the signal depends on donor and acceptor labels being close together.

The subject of a further data set is rat CRF2R α receptor. In words: cAMP agonism at rat CRF2R α receptor in A7R5 rat aortic smooth muscle cells (Example 8). Type of data set: cell-based. The note with it: cAMP HTRF, A7R5 rat aortic smooth muscle cell line, 0% HSA. In outline:
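Thawed cryopreserved A7R5 cells in HBSS/20 mM HEPES (0 or 0.1% HSA) with 2 mM IBMX, 2000 cells/well, were exposed to compound for 30 min at room temperature. cAMP was read by HTRF (665/620 nm ratio) after 1 h with lysis reagents. Activity was normalised to 1000 nM urocortin 2 as 100%, and EC50 was taken as the concentration giving 50% of maximal activation.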

A further data set concerns the target T2, CRF1R receptor (Homo sapiens, UniProt P34998).
T2 construct: host or cells: CHO-K1 clone 2
T2 sequence (P34998 24-415): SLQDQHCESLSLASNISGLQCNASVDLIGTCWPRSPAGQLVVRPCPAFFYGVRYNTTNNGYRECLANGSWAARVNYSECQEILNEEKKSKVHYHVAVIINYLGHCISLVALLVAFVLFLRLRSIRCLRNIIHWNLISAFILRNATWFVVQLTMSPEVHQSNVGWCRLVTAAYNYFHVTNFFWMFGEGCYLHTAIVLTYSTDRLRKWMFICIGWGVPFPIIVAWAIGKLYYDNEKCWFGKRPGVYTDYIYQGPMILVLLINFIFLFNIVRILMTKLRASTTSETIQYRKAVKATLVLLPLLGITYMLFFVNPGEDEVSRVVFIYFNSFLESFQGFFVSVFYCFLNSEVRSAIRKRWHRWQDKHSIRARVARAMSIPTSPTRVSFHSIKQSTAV
Kind of data set: cAMP activity at anti-target CRF1R, CRF1R-overexpression CHO cell line (Example 9). The class given is cell-based. The note with it: CRF1R-overexpression CHO cell line; for EC50: 0% HSA; for Emax: read-out: Emax (%). In outline: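 cAMP accumulation was read by HTRF after 30 min at room temperature of compound treatment. Cells were cryopreserved CHO cells overexpressing CRF1R, plated at 2000/well in IBMX (2 mM)-containing HBSS/HEPES buffer with 0 or 0.1% HSA. Activity was normalized to 1000 nM UCN2 as 100%.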

Data set [1] is described as follows: Physical stability, Thioflavin T fibrillation assay (Example 14). The class given is physicochemical. The note with it: Buffer B: 100 mM acetate buffer, pH 4.5, 2.7 mg/ml m-cresol; 3 mg/ml; 37° C. shaking. Here is the method: The physical stability of the compounds was assessed using a Thioflavin T (ThT) assay.
The time course for fibril formation often follows the characteristic shape of a sigmoidal curve and can be separated into three regions: a lag phase, a fast growth phase, and a plateau phase. The typical fibril formation process starts with the lag phase in which the amount of partially folded peptide turned into fibrils is not significant enough to be detected. The lag-time corresponds to the time the critical mass of the nucleus is built. Afterwards, a drastic elongation phase follows and fibril concentration increases rapidly. Therefore, by measuring the increase in fluorescence intensity attributable to ThT as well as the lag time of the increase, the fibrillation tendency of a peptide can be determined, thereby providing a measure of the physical stability of the peptide.
In the present study, test compounds were diluted in buffer to a final concentration of 3 mg/ml.
The fibrillation tendencies of the peptides were determined under stress using a Fluoroskan Ascent FL or Fluoroskan Ascent fluorometer. […] Plates were sealed with Scotch Tape (Quiagen). Samples were stressed by continuous cycles of 10 s shaking at 960 rpm and 50 s rest period at 37° C. Fibril development was monitored by measuring fluorescence intensity every 20 minutes. For each sample, eight replicates were tested.

[2] abbreviates: 0% HSA, read-out: EC50 [nM], 0% HSA.
The mark [3] stands for this setting: 0.1% HSA, read-out: EC50 [nM], 0.1% HSA.

Where two headings read alike, the source gives them in different places. Starred links: 1 amine or outer side, 2 acyl side, 3 side chain; linkers in the order of their positions; H or OH if unused. Non-standard residues stand in square brackets, D forms with d. Residues, ends and D or L forms follow the SMILES beside them. Groups on a side chain read outwards from the residue. *: point of attachment. C18 diacid = O=C(O)CCCCCCCCCCCCCCCCC(=O)*; γGlu = O=C(O)[C@H](CCC(=O)[*:2])N[*:1]; AEEA = NCCOCCOCC(=O)O; Aib = CC(C)(N)C(=O)O

Take `CC[C@H](C)[C@H](N)C(=O)N[C@H](C(=O)N[C@@H](CC(C)C)C(=O)N[C@@H](CO)C(=O)N[C@@H](CC(C)C)C(=O)N[C@@H](CC(=O)O)C(=O)N[C@@H](C(=O)N1CCC[C@H]1C(=O)N[C@H](C(=O)NCC(=O)N[C@@H](CC(C)C)C(=O)N[C@@H](CCCCNC(=O)COCCOCCNC(=O)COCCOCCNC(=O)CC[C@H](NC(=O)CCCCCCCCCCCCCCCCC(=O)O)C(=O)O)C(=O)N[C@@H](CCC(N)=O)C(=O)N[C@H](C(=O)N[C@@H](CC(C)C)C(=O)N[C@@H](CC(C)C)C(=O)N[C@@H](CCCCN)C(=O)N[C@@H](CCC(N)=O)C(=O)N[C@@H](CCC(=O)O)C(=O)N[C@@H](CCCNC(=N)N)C(=O)N[C@@H](CCC(N)=O)C(=O)N[C@@H](CCCCN)C(=O)N[C@@H](CCCCN)C(=O)NC(C)(C)C(=O)N[C@@H](CCCNC(=N)N)C(=O)N[C@@H](CCC(=O)O)C(=O)N[C@@H](CCC(N)=O)C(=O)N[C@@H](C)C(=O)N[C@@H](CCC(=O)O)C(=O)N[C@H](C(=O)N[C@@H](CC(N)=O)C(=O)N[C@@H](CCCCN)C(=O)N[C@@H](CCCNC(=N)N)C(=O)N[C@H](C(=O)N[C@@H](CC(C)C)C(=O)N[C@@H](CCC(=O)O)C(=O)N[C@@H](CCCNC(=N)N)C(=O)N[C@H](C(N)=O)C(C)C)[C@@H](C)CC)[C@@H](C)O)[C@@H](C)CC)[C@@H](C)CC)C(C)C)C(C)C` [compound 83] (H-IVLSLD[dV]PIGLK([AEEA-AEEA-γGlu-C18 diacid])QILLKQERQKK[Aib]REQAETNKRILERV-NH2; N-terminus assumed): the half-maximal effective concentration (EC50) (usually the concentration needed to bring the measured effect to its halfway point) was 0.07 nM at human CRF2α receptor (setting [2]), 2.99 nM on human CRF2α receptor (setting [3]), 1.83 nM in the data set with rat CRF2R α receptor and over 1000 nM on CRF1R receptor. The Emax – broadly, the maximal effect, on the per cent scale that the assay sets – at CRF1R receptor came out at 7.51%. In addition, in data set [1], the “Increase in FI (fluorescence intensity)” value was “No”. The “Lag time” value in data set [1] is reported as over 45 h.

`CC[C@H](C)[C@H](N)C(=O)N[C@H](C(=O)N[C@@H](CC(C)C)C(=O)N[C@@H](CO)C(=O)N[C@@H](CC(C)C)C(=O)N[C@@H](CC(=O)O)C(=O)N[C@@H](C(=O)N1CCC[C@H]1C(=O)N[C@H](C(=O)N[C@@H](CCCCN)C(=O)N[C@@H](CC(C)C)C(=O)N[C@@H](CCCCNC(=O)COCCOCCNC(=O)COCCOCCNC(=O)CC[C@H](NC(=O)CCCCCCCCCCCCCCCCC(=O)O)C(=O)O)C(=O)N[C@@H](CCC(N)=O)C(=O)N[C@H](C(=O)N[C@@H](CC(C)C)C(=O)N[C@@H](CC(C)C)C(=O)N[C@@H](CCC(=O)O)C(=O)N[C@@H](CCC(N)=O)C(=O)N[C@@H](CCC(=O)O)C(=O)N[C@@H](CCCNC(=N)N)C(=O)N[C@@H](CCC(N)=O)C(=O)N[C@@H](CCCCN)C(=O)NC(C)(C)C(=O)N[C@@H](CCC(N)=O)C(=O)N[C@@H](CCCNC(=N)N)C(=O)N[C@@H](CCC(N)=O)C(=O)N[C@@H](CCC(N)=O)C(=O)N[C@@H](C)C(=O)N[C@@H](CCC(=O)O)C(=O)N[C@@H](CCCCN)C(=O)N[C@@H](CC(N)=O)C(=O)N[C@@H](CCCCN)C(=O)N[C@@H](CCC(N)=O)C(=O)N[C@H](C(=O)N[C@@H](CC(C)C)C(=O)N[C@@H](C)C(=O)N[C@@H](CCC(N)=O)C(=O)N[C@H](C(N)=O)C(C)C)[C@@H](C)CC)[C@@H](C)CC)[C@@H](C)CC)C(C)C)C(C)C` [compound 131] (H-IVLSLD[dV]PIKLK([AEEA-AEEA-γGlu-C18 diacid])QILLEQERQK[Aib]QRQQAEKNKQILAQV-NH2): the figures for the EC50 at human CRF2α receptor (setting [2]), at human CRF2α receptor (setting [3]) and in the data set on rat CRF2R α receptor were 0.11 nM, 2.44 nM and 0.39 nM, respectively. In addition, in data set [1], the “Increase in FI (fluorescence intensity)” value is listed as “No”. The “Lag time” value in data set [1] was over 45 h.

As for `CC[C@H](C)[C@H](N)C(=O)N[C@H](C(=O)N[C@@H](CC(C)C)C(=O)N[C@@H](CO)C(=O)N[C@@H](CC(C)C)C(=O)N[C@@H](CC(=O)O)C(=O)N[C@@H](C(=O)N1CCC[C@H]1C(=O)N[C@H](C(=O)N[C@@H](CCCCN)C(=O)N[C@@H](CC(C)C)C(=O)N[C@@H](CCCCNC(=O)COCCOCCNC(=O)COCCOCCNC(=O)CC[C@H](NC(=O)CCCCCCCCCCCCCCCCC(=O)O)C(=O)O)C(=O)N[C@@H](CCC(N)=O)C(=O)N[C@H](C(=O)N[C@@H](CC(C)C)C(=O)N[C@@H](CC(C)C)C(=O)N[C@@H](CCC(=O)O)C(=O)N[C@@H](CCC(N)=O)C(=O)N[C@@H](CCC(=O)O)C(=O)N[C@@H](CCCNC(=N)N)C(=O)N[C@@H](CCC(N)=O)C(=O)N[C@@H](CCCCN)C(=O)NC(C)(C)C(=O)N[C@@H](CCC(N)=O)C(=O)N[C@@H](CCCNC(=N)N)C(=O)N[C@@H](CCC(=O)O)C(=O)N[C@@H](CCC(N)=O)C(=O)N[C@@H](C)C(=O)N[C@@H](CCC(=O)O)C(=O)N[C@@H](CCCCN)C(=O)N[C@@H](CC(N)=O)C(=O)N[C@@H](CCCCN)C(=O)N[C@@H](CCC(N)=O)C(=O)N[C@H](C(=O)N[C@@H](CC(C)C)C(=O)N[C@@H](CCC(=O)O)C(=O)N[C@@H](CCCNC(=N)N)C(=O)N[C@H](C(N)=O)C(C)C)[C@@H](C)CC)[C@@H](C)CC)[C@@H](C)CC)C(C)C)C(C)C` [compound 132] (H-IVLSLD[dV]PIKLK([AEEA-AEEA-γGlu-C18 diacid])QILLEQERQK[Aib]QREQAEKNKQILERV-NH2), the concentration for a half-maximal effect (EC50) was 0.38 nM at human CRF2α receptor (setting [2]), 8.76 nM on human CRF2α receptor (setting [3]), 0.79 nM with rat CRF2R α receptor and over 1000 nM at CRF1R receptor. The Emax on CRF1R receptor was found to be 36.9%. For the same molecule, the “Increase in FI (fluorescence intensity)” value in data set [1] is “No”. Besides, the “Lag time” value in data set [1] was over 45 h.

The values are drawn from patent publication US12679878B2, “CRF2 receptor agonists and their use in therapy” (SANOFI, priority 2020, dated 2026).
